How the values were obtained:
[1] = test system: human UCB derived CD34+ cells; experiment: Short-term serum-free, cytokine supplemented expansion of UCB derived CD34+ cells with pomalidomide; type: cell-based; details: for CD34+ phenotype in the expanded population / CD133 level of expanded CD34+ cells / expanded CD34+ cells that are CD38 negative / total nucleated cell expansion: pomalidomide 2.7 μg/mL, 12 days
Procedure: The ability of pomalidomide to enhance the expansion of human UCB derived CD34^+ cells in a short-term serum-free, cytokine supplemented culture system was evaluated. CD34^+ progenitor cells were enriched from cryopreserved UCB units to >90% purity and seeded (104 CD34^+ cells) in 1 mL of growth medium, which consists of IMDM plus serum substitute BIT (BSA, recombinant human insulin and transferrin, 20%), in the presence of SCF (50 ng/mL), Flt-3 ligand (50 ng/mL), and IL-3 (10 ng/mL). Pomalidomide, dissolved in DMSO, was supplemented at 2.7 μg/mL. The culture was incubated at 37° C., 5% CO2 for 12 days, with fresh medium added at day 7. Pomalidomide-free cultures with or without DMSO (0.05% v/v) were used as controls.

CD34+ cells = experiment: Scaled-up pomalidomide-based CD34+ expansion in gas-permeable culture bag; type: cell-based, human
Procedure: CD34^+ cells were seeded in 10^4/mL pomalidomide-supplemented medium in a flexible, gas-permeable fluorocarbon culture bag (American Fluoroseal). After 7 days of incubation, the culture was centrifuged and exchanged with fresh pomalidomide-supplemented medium at three times the initial volume. By day 12, TNC and CD34^+ expansion were 350 (range: 250-700) and 200 (range: 100-450) fold, respectively (FIG. 4). Viability was 86% (range: 80-90%) by trypan blue. A total of 20 million CD34^+ cells were harvested.

[2] = day 12, culture bag, seeded 10^4/mL

## Nc1cccc2c1C(=O)N(C1CCC(=O)NC1=O)C2=O (stereo not shown) [pomalidomide, 4-(Amino)-2-(2,6-dioxo(3-piperidyl))-isoindoline-1,3-dione]
[1]; first experiment
  CD34+ expression in the expanded population versus control: significantly higher CD34^+ expression
  CD38 expression on cultured cells: appeared to down-regulate CD38 expression
  cumulative colony forming units relative to expanded controls: substantial improvement
  CD34+ phenotype in the expanded population: 40-60%
  CD133 level of expanded CD34+ cells: 15%
  expanded CD34+ cells that are CD38 negative: 95%
  total nucleated cell expansion: 200-350 fold
[1]; second similar experiment
  CD34+ phenotype in the expanded population: 40-60%
  CD133 level of expanded CD34+ cells: 11.5%
  expanded CD34+ cells that are CD38 negative: 97%
  total nucleated cell expansion: 200-350 fold
  CD34+ expression in the expanded population versus control: significantly higher CD34^+ expression
  CD38 expression on cultured cells: appeared to down-regulate CD38 expression
  cumulative colony forming units relative to expanded controls: substantial improvement
CD34+ cells
  ex-vivo expansion of placental derived CD34+ progenitors: significantly enhanced
CD34+ cells; day 12, culture bag
  Viability by trypan blue: 86% (range: 80-90%)
  total CD34+ cells harvested: 20 million
CD34+ cells; [2]
  CD34+ expansion: 200 (range: 100-450) fold
  TNC expansion: 350 (range: 250-700) fold

From US9255248B2, “Method of producing erythrocytes without feeder cells” (Anthrogenesis Corporation, priority 2009, dated 2016)
